Assay results from US10821115B2, “Compounds that inhibit Mcl-1 protein” (priority 2017, dated 2020).
pIC50: −log10 of the molar value. Like-named read-outs stand apart in the source and are kept apart here.

Assays:
[1] = molecular target: recombinant human Mcl-1 (residues 171-327) / Bim interaction (Homo sapiens (Human), UniProt Q07820); test: biochemical; assay type: binding; settings: read-out: Mcl-1 HTRF IC50
[2] = test system: human multiple myeloma cell line, OPM-2; test: Cell viability assay (OPM-2 10 FBS), CellTiter-Glo; assay type: cell-based
Procedure, shortened: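 Cells were seeded at 3000 cells/well in RPMI 1640 with 10% FBS and exposed to serially diluted compounds for 16 h at 37 °C, 5% CO2.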

[3] = TR-FRET, Mcl-1(171-327) / biotin-Bim (51-76)
[4] = Homo sapiens, OPM-2, 16 h, read-out: OPM-2 10% FBS IC50 IP, OPM-2 cells, 10% FBS, 16 h, CellTiter-Glo
[5] = read-out: OPM-2 10% FBS IC50 IP, OPM-2 cells, 10% FBS, 16 h, CellTiter-Glo

Sequence of recombinant human Mcl-1 (residues 171-327) / Bim interaction (Q07820 171-327): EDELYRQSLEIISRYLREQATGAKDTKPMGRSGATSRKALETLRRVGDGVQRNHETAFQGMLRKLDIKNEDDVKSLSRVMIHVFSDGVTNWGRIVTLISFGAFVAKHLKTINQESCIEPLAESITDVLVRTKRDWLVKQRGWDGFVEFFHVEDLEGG

`C[C@@H]1[C@@H](C)C/C=C/[C@](O)(c2c[nH]nn2)[C@@H]2CC[C@H]2CN2C[C@@]3(CCCc4cc(Cl)ccc43)COc3ccc(cc32)C(=O)NS1(=O)=O` [Example 100239, (1S,3′R,6′R,7′R,8′E,11′S,12′R)-6-chloro-7′-hydroxy-11′,12′-dimethyl-7′-(1H-1,2,3-triazol-4-yl)-3,4-dihydro-2H,15′H-spiro[naphthalene-1,22′-[20]oxa[13]thia[1,14]diazatetracyclo [14.7.2.0~3,6~.0~19,24~]pentacosa[8,16,18,24]tetraen]-15′-one 13′,13′-dioxide] showed a pIC50 [1, 3] of 9.48 and a pIC50 [2, 4] of 5.43.
Compound `C[C@@H]1[C@@H](C)C/C=C/[C@@](O)(Cc2ccccn2)[C@@H]2CC[C@H]2CN2C[C@@]3(CCCc4cc(Cl)ccc43)COc3ccc(cc32)C(=O)NS1(=O)=O` [Example 100241, (1S,3′R,6′R,7′S,8′E,11′S,12′R)-6-chloro-7′-hydroxy-11′,12′-dimethyl-7′-(2-pyridinylmethyl)-3,4-dihydro-2H,15′H-spiro[naphthalene-1,22′-[20]oxa[13]thia[1,14]diazatetracyclo [14.7.2.0~3,6~.0~19,24~]pentacosa[8,16,18,24]tetraen]-15′-one 13′,13′-dioxide] has a pIC50 [1, 3] of 9.44 and a pIC50 [2, 5] of 6.40.
`C[C@@H]1[C@@H](C)C/C=C/[C@@](O)(Cc2ccccn2)[C@@H]2CC[C@H]2CN2C[C@@]3(CCCc4cc(Cl)ccc43)COc3ccc(cc32)C(=O)NS1(=O)=O` [Example 100242, (1S,3′R,6′R,7′S,8′E,11′S,12′R)-6-chloro-7′-hydroxy-11′,12′-dimethyl-7′-(2-pyridinylmethyl)-3,4-dihydro-2H,15′H-spiro[naphthalene-1,22′-[20]oxa[13]thia[1,14]diazatetracyclo [14.7.2.0~3,6~.0~19,24~]pentacosa[8,16,18,24]tetraen]-15′-one 13′,13′-dioxide] was tested, and the pIC50 [1, 3] was 8.67 and the pIC50 [2, 5] was 5.84.
`C#C[C@]1(O)/C=C/C[C@H](C)[C@@H](C)S(=O)(=O)NC(=O)c2ccc3c(c2)N(C[C@@H]2CC[C@H]21)C[C@@]1(CCCc2cc(Cl)ccc21)CO3` [Example 100244, (1S,3′R,6′R,7′S,8′E,11′S,12′R)-6-chloro-7′-ethynyl-7′-hydroxy-11′,12′-dimethyl-3,4-dihydro-2H,15′H-spiro[naphthalene-1,22′-[20]oxa[13]thia[1,14]diazatetracyclo [14.7.2.0~3,6~.0~19,24~]pentacosa[8,16,18,24]tetraen]-15′-one 13′,13′-dioxide] gave a pIC50 [1, 3] of 9.74 and a pIC50 [2, 4] of 7.31.
Work on `C[C@@H]1[C@@H](C)C/C=C/[C@](O)(Cc2nccs2)[C@@H]2CC[C@H]2CN2C[C@@]3(CCCc4cc(Cl)ccc43)COc3ccc(cc32)C(=O)NS1(=O)=O` [Example 100245, (1S,3′R,6′R,7′R,8′E,11′S,12′R)-6-chloro-7′-hydroxy-11′,12′-dimethyl-7′-(1,3-thiazol-2-ylmethyl)-3,4-dihydro-2H,15′H-spiro[naphthalene-1,22′-[20]oxa[13]thia[1,14]diazatetracyclo [14.7.2.0~3,6~.0~19,24~]pentacosa[8,16,18,24]tetraen]-15′-one 13′,13′-dioxide] yielded a pIC50 [1] of 8.77 and a pIC50 [2, 5] of 5.70.
`C[C@@H]1[C@@H](C)C/C=C/[C@](O)(Cc2nccs2)[C@@H]2CC[C@H]2CN2C[C@@]3(CCCc4cc(Cl)ccc43)COc3ccc(cc32)C(=O)NS1(=O)=O` [Example 100246, (1S,3′R,6′R,7′R,8′E,11′S,12′R)-6-chloro-7′-hydroxy-11′,12′-dimethyl-7′-(1,3-thiazol-2-ylmethyl)-3,4-dihydro-2H,15′H-spiro[naphthalene-1,22′-[20]oxa[13]thia[1,14]diazatetracyclo [14.7.2.0~3,6~.0~19,24~]pentacosa[8,16,18,24]tetraen]-15′-one 13′,13′-dioxide] was tested, and the pIC50 [1] was 9.49 and the pIC50 [2, 5] was 6.94.
`C[C@@H]1[C@@H](C)C/C=C/[C@@](O)(CC(=O)N(C)c2ccccc2)[C@@H]2CC[C@H]2CN2C[C@@]3(CCCc4cc(Cl)ccc43)COc3ccc(cc32)C(=O)NS1(=O)=O` [Example 100247, 2-((1S,3′R,6′R,7′S,8′E,11′S,12′R)-6-chloro-7′-hydroxy-11′,12′-dimethyl-13′,13′-dioxido-15′-oxo-3,4-dihydro-2H-spiro[naphthalene-1,22′-[20]oxa[13]thia[1,14]diazatetracyclo [14.7.2.0~3,6~.0~19,24~]pentacosa[8,16,18,24]tetraen]-7′-yl)-N-methyl-N-phenylacetamide] showed a pIC50 [1, 3] of 9.27 and a pIC50 [2, 4] of 6.20.
Work on `CO[C@@]1(C2SCCCS2)CCC[C@H](C)[C@@H](C)S(=O)(=O)NC(=O)c2ccc3c(c2)N(C[C@@H]2CC[C@H]21)C[C@@]1(CCCc2cc(Cl)ccc21)CO3` [Example 100249, (1S,3′R,6′R,7′S,11′S,12′R)-6-chloro-7′-(1,3-dithian-2-yl)-7′-methoxy-11′,12′-dimethyl-3,4-dihydro-2H,15′H-spiro[naphthalene-1,22′-[20]oxa[13]thia[1,14]diazatetracyclo [14.7.2.0~3,6~.0~19,24~]pentacosa[16,18,24]trien]-15′-one 13′,13′-dioxide] yielded a pIC50 [1, 3] of 8.52 and a pIC50 [2, 4] of 5.64.
Compound `C[C@@H]1[C@@H](C)C/C=C/[C@@](O)(CC(=O)N2CCCC2)[C@@H]2CC[C@H]2CN2C[C@@]3(CCCc4cc(Cl)ccc43)COc3ccc(cc32)C(=O)NS1(=O)=O` [Example 100252, (1S,3′R,6′R,7′S,8′E,11′S,12′R)-6-chloro-7′-hydroxy-11′,12′-dimethyl-7′-(2-oxo-2-(1-pyrrolidinyl)ethyl)-3,4-dihydro-2H,15′H-spiro[naphthalene-1,22′-[20]oxa[13]thia[1,14]diazatetracyclo [14.7.2.0~3,6~.0~19,24~]pentacosa[8,16,18,24]tetraen]-15′-one 13′,13′-dioxide] has a pIC50 [1, 3] of 9.95 and a pIC50 [2, 5] of 7.11.
`C[C@@H]1[C@@H](C)C/C=C/[C@@](O)(CC(=O)N2CCCC2)[C@@H]2CC[C@H]2CN2C[C@@]3(CCCc4cc(Cl)ccc43)COc3ccc(cc32)C(=O)NS1(=O)=O` [Example 100253, (1S,3′R,6′R,7′S,8′E,11′S,12′R)-6-chloro-7′-hydroxy-11′,12′-dimethyl-7′-(2-oxo-2-(1-pyrrolidinyl)ethyl)-3,4-dihydro-2H,15′H-spiro[naphthalene-1,22′-[20]oxa[13]thia[1,14]diazatetracyclo [14.7.2.0~3,6~.0~19,24~]pentacosa[8,16,18,24]tetraen]-15′-one 13′,13′-dioxide] was tested, and the pIC50 [1, 3] was 9.83 and the pIC50 [2, 5] was 6.26.
Work on `CO[C@@]1(C2SCCCS2)CCC[C@H](C)[C@@H](C)S(=O)(=O)NC(=O)c2ccc3c(c2)N(C[C@@H]2CC[C@H]21)C[C@@]1(CCCc2cc(Cl)ccc21)CO3` [Example 100254, (1S,3′R,6′R,7′S,11′S,12′R)-6-chloro-7′-(1,3-dithian-2-yl)-7′-methoxy-11′,12′-dimethyl-3,4-dihydro-2H,15′H-spiro[naphthalene-1,22′-[20]oxa[13]thia[1,14]diazatetracyclo [14.7.2.0~3,6~.0~19,24~]pentacosa[16,18,24]trien]-15′-one 13′,13′-dioxide] yielded a pIC50 [1, 3] of 8.39 and a pIC50 [2, 5] of 5.67.
With `C[C@@H]1[C@@H](C)CCC[C@](C#N)(NC(=O)c2ccccc2)[C@@H]2CC[C@H]2CN2C[C@@]3(CCCc4cc(Cl)ccc43)COc3ccc(cc32)C(=O)NS1(=O)=O` [Example 100255, N-((1S,3′R,6′R,7′S,11′S,12′R)-6-chloro-7′-cyano-11′,12′-dimethyl-13′,13′-dioxido-15′-oxo-3,4-dihydro-2H-spiro[naphthalene-1,22′-[20]oxa[13]thia[1,14]diazatetracyclo [14.7.2.0~3,6~.0~19,24~]pentacosa[16,18,24]trien]-7′-yl)benzamide] the pIC50 [1, 3] was 7.84 and the pIC50 [2, 4] was 5.30.
`C[C@@H]1[C@@H](C)CCC[C@](CO)(NC(=O)c2ccccc2)[C@@H]2CC[C@H]2CN2C[C@@]3(CCCc4cc(Cl)ccc43)COc3ccc(cc32)C(=O)NS1(=O)=O` [Example 100256, N-((1S,3′R,6′R,7′S,11′S,12′R)-6-chloro-7′-(hydroxymethyl)-11′,12′-dimethyl-13′,13′-dioxido-15′-oxo-3,4-dihydro-2H-spiro[naphthalene-1,22′-[20]oxa[13]thia[1,14]diazatetracyclo [14.7.2.0~3,6~.0~19,24~]pentacosa[16,18,24]trien]-7′-yl)benzamide] showed a pIC50 [1, 3] of 8.30 and a pIC50 [2, 4] of 5.92.
For `C[C@@H]1[C@@H](C)C/C=C/[C@@](O)(CC(=O)N2CCCCC2)[C@@H]2CC[C@H]2CN2C[C@@]3(CCCc4cc(Cl)ccc43)COc3ccc(cc32)C(=O)NS1(=O)=O` [Example 100257, (1S,3′R,6′R,7′S,8′E,11′S,12′R)-6-chloro-7′-hydroxy-11′,12′-dimethyl-7′-(2-oxo-2-(1-piperidinyl)ethyl)-3,4-dihydro-2H,15′H-spiro[naphthalene-1,22′-[20]oxa[13]thia[1,14]diazatetracyclo [14.7.2.0~3,6~.0~19,24~]pentacosa[8,16,18,24]tetraen]-15′-one 13′,13′-dioxide], the pIC50 [1, 3] was 9.74 and the pIC50 [2, 5] was 7.10.
In the case of `C[C@@H]1[C@@H](C)C/C=C/[C@@](O)(CC(=O)N2CCCCC2)[C@@H]2CC[C@H]2CN2C[C@@]3(CCCc4cc(Cl)ccc43)COc3ccc(cc32)C(=O)NS1(=O)=O` [Example 100258, (1S,3′R,6′R,7′S,8′E,11′S,12′R)-6-chloro-7′-hydroxy-11′,12′-dimethyl-7′-(2-oxo-2-(1-piperidinyl)ethyl)-3,4-dihydro-2H,15′H-spiro[naphthalene-1,22′-[20]oxa[13]thia[1,14]diazatetracyclo [14.7.2.0~3,6~.0~19,24~]pentacosa[8,16,18,24]tetraen]-15′-one 13′,13′-dioxide], the pIC50 [1, 3] was 9.26 and the pIC50 [2, 5] was 6.28.
